# Source: patent US7268128B2, “1,3,5-trisubstituted-5-phenyl and 5-pyridyl pyrazolopyrimidinone derivatives having PDE7 inhibiting action” (Ausbio Pharma Co., Ltd., priority 2001, dated 2007)
# Where a name gives a salt, the structure may show the parent alone.
# Target: T1, PDE7 (type VII phosphodiesterase) (Homo sapiens, UniProt Q13946)
# T1 construct: endogenous in cells; host or cells: MOLT-4 (ATCC CRL-1582), soluble fraction, HiTrapQ anion-exchange fraction
# Test: PDE7 inhibiting activity (3H-cAMP hydrolysis, active fraction from MOLT-4 cells)
# Type: biochemical
# Settings: PDE7 fraction from MOLT-4 cells, 0.064 μM cAMP, 10 μM rolipram present, 2 hours at 25° C.; read-out: IC50 values for phosphodiesterase inhibiting activities (PDE7)
# Method in brief: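 PDE7 from MOLT-4 cell soluble fraction, HiTrapQ NaCl-gradient purified. Compounds reacted 2 h at 25° C in 20 mM tris-HCl pH 7.5, 1 mM MgCl2, 0.1 μCi 3H-cAMP (0.064 μM cAMP), 10 μM rolipram, 5′-nucleotidase; QAE-Sephadex-separated supernatant counted.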
# T1 sequence (Q13946 whole entry): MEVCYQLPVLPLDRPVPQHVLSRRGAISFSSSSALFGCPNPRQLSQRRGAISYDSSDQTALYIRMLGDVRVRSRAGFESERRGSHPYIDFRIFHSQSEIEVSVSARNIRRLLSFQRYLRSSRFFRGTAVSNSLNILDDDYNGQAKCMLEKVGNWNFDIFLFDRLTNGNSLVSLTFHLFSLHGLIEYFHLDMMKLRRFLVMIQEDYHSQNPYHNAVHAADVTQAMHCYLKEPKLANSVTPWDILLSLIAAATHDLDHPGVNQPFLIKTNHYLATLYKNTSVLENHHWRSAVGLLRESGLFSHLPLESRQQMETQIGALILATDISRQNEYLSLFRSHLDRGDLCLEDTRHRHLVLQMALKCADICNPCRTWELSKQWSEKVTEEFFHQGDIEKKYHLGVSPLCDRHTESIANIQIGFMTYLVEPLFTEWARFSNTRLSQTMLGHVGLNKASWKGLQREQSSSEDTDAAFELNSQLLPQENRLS
row,SMILES,IC50 [nM]
1,"COc1cc(S(=O)(=O)NC2CCNCC2)ccc1-c1nc2c(C)nn(C3CCCCC3)c2c(=O)[nH]1 [Example 220, 4-(1-Cyclohexyl-3-methyl-7-oxo-6,7-dihydro-1H-pyrazolo[4,3-d]pyrimidin-5-yl)-3-methoxy-N-(4-piperidinyl)benzenesulfonamide monohydrochloride]",≤ 1000
2,"CNC1CCN(Cc2ccc(-c3nc4c(C)nn(C5CCCCC5)c4c(=O)[nH]3)c(OC)c2)CC1 [Example 241, 1-Cyclohexyl-5-(2-methoxy-4-{[4-(methylamino)-1-piperidinyl]methyl}phenyl)-3-methyl-1,6-dihydro-7H-pyrazolo[4,3-d]pyrimidin-7-one]",≤ 1000
3,"COc1cc(N2CCN(C)CC2)ccc1-c1nc2c(c(C3CCCCC3)nn2C)c(=O)[nH]1 [Example 28, 3-Cyclohexyl-6-[2-methoxy-4-(4-methyl-1-piperazinyl)phenyl]-1-methyl-1,5-dihydro-4H-pyrazolo[3,4-d]pyrimidin-4-one monomethanesulfonate]",≤ 10
4,"COc1cc(NC2CCN(C)CC2)ccc1-c1nc2c(C)nn(C3CCCCC3)c2c(=O)[nH]1 [Example 232, 1-Cyclohexyl-5-{2-methoxy-4-[(1-methyl-4-piperidinyl)amino]phenyl}-3-methyl-1,6-dihydro-7H-pyrazolo[4,3-d]pyrimidin-7-one]",≤ 10
5,"COc1ccccc1-c1nc2c(C)nn(C3CCCCC3)c2c(=O)[nH]1 [Example 5, 1-Cyclohexyl-5-(2-methoxyphenyl)-3-methyl-1,6-dihydro-7H-pyrazolo[4,3-d]pyrimidin-7-one]",≤ 1000
6,"CNC1CCN(c2ccc(-c3nc4c(C)nn(C5CCCCC5)c4c(=O)[nH]3)c(OC)c2)CC1 [Example 92, 1-Cyclohexyl-5-{2-methoxy-4-[4-(methylamino)-1-piperidinyl]phenyl}-3-methyl-1,6-dihydro-7H-pyrazolo[4,3-d]pyrimidin-7-one]",≤ 10
7,"CCn1nc(C2CCCCC2)c2c(=O)[nH]c(-c3ccc(S(=O)(=O)N4CCCNCC4)cc3OC)nc21 [Example 209, 3-Cyclohexyl-6-[4-(1,4-diazepan-1-ylsulfonyl)-2-methoxyphenyl]-1-ethyl-1,5-dihydro-4H-pyrazolo[3,4-d]pyrimidin-4-one]",≤ 1000
8,"COc1cc(N(C)CCN(C)C)ccc1-c1nc2c(c(C3CCCCC3)nn2C)c(=O)[nH]1 [Example 132, 3-Cyclohexyl-6-{4-[[2-(dimethylamino)ethyl](methyl)amino]-2-methoxyphenyl}-1-methyl-1,5-dihydro-4H-pyrazolo[3,4-d]pyrimidin-4-one monomethanesulfonate]",≤ 10
9,"COc1cc(C(=O)N2CCC(OC)CC2)ccc1-c1nc2c(c(C3CCCCC3)nn2C)c(=O)[nH]1 [Example 70, 3-Cyclohexyl-6-{2-methoxy-4-[(4-methoxy-1-piperidinyl)carbonyl]phenyl}-1-methyl-1,5-dihydro-4H-pyrazolo[3,4-d]pyrimidin-4-one]",≤ 1000
10,"COc1cc(S(=O)(=O)N2CCS(=O)(=O)CC2)ccc1-c1nc2c(c(C3CCCCC3)nn2C)c(=O)[nH]1 [Example 191, 3-Cyclohexyl-6-{4-[(1,1-dioxido-4-thiomorpholinyl)sulfonyl]-2-methoxyphenyl}-1-methyl-1,5-dihydro-4H-pyrazolo[3,4-d]pyrimidin-4-one]",≤ 1000
11,"COc1cc(N2CCC(N(C)C)CC2)ccc1-c1nc2c(c(C3CCCCC3)nn2C)c(=O)[nH]1 [Example 154, 3-Cyclohexyl-6-{4-[4-(dimethylamino)-1-piperidinyl]-2-methoxyphenyl}-1-methyl-1,5-dihydro-4H-pyrazolo[3,4-d]pyrimidin-4-one monomethanesulfonate]",≤ 10
12,"COc1cc(N2CCOCC2)ccc1-c1nc2c(c(C3CCCCC3)nn2C)c(=O)[nH]1 [Example 59, 3-Cyclohexyl-6-[2-methoxy-4-(4-morpholinyl)phenyl]-1-methyl-1,5-dihydro-4H-pyrazolo[3,4-d]pyrimidin-4-one]",≤ 1000
13,"CCOc1cc(S(=O)(=O)N2CCCN(C)CC2)ccc1-c1nc2c(C)nn(C3CCCCC3)c2c(=O)[nH]1 [Example 256, 1-Cyclohexyl-5-{2-ethoxy-4-[(4-methyl-1,4-diazepan-1-yl)sulfonyl]phenyl}-3-methyl-1,6-dihydro-7H-pyrazolo[4,3-d]pyrimidin-7-one]",≤ 1000
14,"COc1cc(OCC(=O)O)ccc1-c1nc2c(c(C3CCCCC3)nn2C)c(=O)[nH]1 [Example 41, [4-(3-cyclohexyl-1-methyl-4-oxo-4,5-dihydro-1H-pyrazolo[3,4-d]pyrimidin-6-yl)-3-methoxyphenoxy]acetic acid]",≤ 1000
15,"COc1cc(S(=O)(=O)N2CCN(C)CC2)ccc1-c1nc2c(c(C3CCCCC3)nn2C)c(=O)[nH]1 [Example 50, 3-Cyclohexyl-6-{2-methoxy-4-[(4-methyl-1-piperazinyl)sulfonyl]phenyl}-1-methyl-1,5-dihydro-4H-pyrazolo[3,4-d]pyrimidin-4-one monochloride]",≤ 1000
16,"COc1cc(N2CCN(C)CC2)ccc1-c1nc2c(c(C3CCCCC3)nn2C)c(=O)[nH]1 [Example 27, 3-Cyclohexyl-6-[2-methoxy-4-(4-methyl-1-piperazinyl)phenyl]-1-methyl-1,5-dihydro-4H-pyrazolo[3,4-d]pyrimidin-4-one]",≤ 10
17,"COc1cc(S(=O)(=O)NCCN(C)C)ccc1-c1nc2c(c(C3CCCCC3)nn2C)c(=O)[nH]1 [Example 56, 4-(3-Cyclohexyl-1-methyl-4-oxo-4,5-dihydro-1H-pyrazolo[3,4-d]pyrimidin-6-yl)-N-[2-(dimethylamino)ethyl]-3-methoxybenzenesulfonamide monochloride]",≤ 1000
18,"COc1cc(C2=CCN(Cc3ccccc3)CC2)ccc1-c1nc2c(C)nn(C3CCCCC3)c2c(=O)[nH]1 [Example 272, 5-[4-(1-Benzyl-1,2,3,6-tetrahydro-4-pyridinyl)-2-methoxyphenyl]-1-cyclohexyl-3-methyl-1,6-dihydro-7H-pyrazolo[4,3-d]pyrimidin-7-one]",≤ 1000
19,"CNCCN(C)c1ccc(-c2nc3c(c(C4CCCCC4)nn3C)c(=O)[nH]2)c(OC)c1 [Example 84, 3-Cyclohexyl-6-(2-methoxy-4-{methyl[2-(methylamino)ethyl]amino}phenyl)-1-methyl-1,5-dihydro-4H-pyrazolo[3,4-d]pyrimidin-4-one monomethanesulfonate]",≤ 10
20,"CNS(=O)(=O)c1ccc(-c2nc3c(c(C4CCCCC4)nn3C)c(=O)[nH]2)c(OC)c1 [Example 204, 4-(3-Cyclohexyl-1-methyl-4-oxo-4,5-dihydro-1H-pyrazolo[3,4-d]pyrimidin-6-yl)-3-methoxy-N-methylbenzenesulfonamide]",≤ 1000
21,"CCOc1cc(N2CCC(O)CC2)ccc1-c1nc2c(C)nn(C3CCCCC3)c2c(=O)[nH]1 [Example 261, 1-Cyclohexyl-5-[2-ethoxy-4-(4-hydroxy-1-piperidinyl)phenyl]-3-methyl-1,6-dihydro-7H-pyrazolo[4,3-d]pyrimidin-7-one]",≤ 10
22,"COc1cc(S(=O)(=O)N2CCC(O)CC2)ccc1-c1nc2c(c(C3CCCCC3)nn2C)c(=O)[nH]1 [Example 52, 3-Cyclohexyl-6-{4-[(4-hydroxy-1-piperidinyl)sulfonyl]-2-methoxyphenyl}-1-methyl-1,5-dihydro-4H-pyrazolo[3,4-d]pyrimidin-4-one]",≤ 10
23,"COc1cc(S(=O)(=O)N2CCC(O)CC2)ccc1-c1nc2c(C)nn(C3CCCCC3)c2c(=O)[nH]1 [Example 199, 1-Cyclohexyl-5-{4-[(4-hydroxy-1-piperidinyl)sulfonyl]-2-methoxyphenyl}-3-methyl-1,6-dihydro-7H-pyrazolo[4,3-d]pyrimidin-7-one]",≤ 1000
24,"COc1ccc(F)cc1-c1nc2c(c(C3CCCCC3)nn2C)c(=O)[nH]1 [Example 74, 3-Cyclohexyl-6-(5-fluoro-2-methoxyphenyl)-1-methyl-1,5-dihydro-4H-pyrazolo[3,4-d]pyrimidin-4-one]",≤ 1000
25,"COc1cc(C(=O)N2CCN(C)CC2)ccc1-c1nc2c(c(C3CCCCC3)nn2C)c(=O)[nH]1 [Example 67, 3-Cyclohexyl-6-{2-methoxy-4-[(4-methyl-1-piperazinyl)carbonyl]phenyl}-1-methyl-1,5-dihydro-4H-pyrazolo[3,4-d]pyrimidin-4-one monomethanesulfonate]",≤ 1000
